# From article PMC5608353 (PLoS ONE, 2017)
# Where “and” joins values, the source holds several entries; their conditions need not be identical. Equal values may be shown once. Read-outs that look alike come from different tables or passages of the source. Where a SMILES comes first, the peptide text is derived from it. Bridges are numbered along the chain shown (N, C = ends).
# How the values were obtained:
# [1] = tested on: C. perfringens JC2; assay: microbe, parasite or virus in culture; conditions: Clostridium perfringens, JC2, 18 h
# [2] = tested on: C. perfringens CVCC 46; assay type: cell-based, Clostridium perfringens type A
# [3] = tested on: C. perfringens CVCC 51; assay: microbe, parasite or virus in culture; conditions: Clostridium perfringens, CVCC51, 18 h
# [4] = tested on: C. perfringens JZ10; assay: microbe, parasite or virus in culture; conditions: Clostridium perfringens, JZ10, 18 h
# [5] = tested on: C. perfringens CVCC 46
# [6] = tested on: C. perfringens JT1; assay: microbe, parasite or virus in culture; conditions: Clostridium perfringens, JT1, 18 h
# [7] = tested on: C. perfringens CVCC 46; assay: microbe, parasite or virus in culture; conditions: Clostridium perfringens, CVCC46, read-out: MICa (MIC of drug used alone)
# [8] = tested on: C. perfringens CVCC 46; assay: microbe, parasite or virus in culture; conditions: Clostridium perfringens, CVCC46, 18 h
# [9] = tested on: C. perfringens CVCC 1137; assay: microbe, parasite or virus in culture; conditions: Clostridium perfringens, CVCC1137, 18 h
# [10] = tested on: C. perfringens JZ10
# [11] = tested on: C. perfringens CVCC 1137
# [12] = tested on: C. perfringens CVCC 51
# [13] = tested on: C. perfringens CVCC 46; assay type: cell-based, Clostridium perfringens type A; remark: listed apart in the source
# [14] = tested on: C. perfringens CVCC 46; remark: listed apart in the source
# [15] = tested on: C. perfringens type C CVCC 61 cells; conditions: cited from earlier work
# [16] = tested on: C. perfringens JC2
# [17] = tested on: C. perfringens genomic DNA; assay type: binding, Clostridium perfringens
# [18] = tested on: C. perfringens CVCC 46; assay type: cell-based, Clostridium perfringens type A; remark: listed apart in the source
# [19] = tested on: C. perfringens CVCC 46 genomic DNA; assay type: binding, Clostridium perfringens type A
# [20] = tested on: C. perfringens JT1
# [21] = tested on: human erythrocytes, epidermal keratinocytes, A549 cells, murine L929 fibroblasts, porcine intestinal epithelial cell line ZYMSIEC02; conditions: cited from earlier work
# [22] = CVCC 46, 2×MIC, 1×10^5 CFU/mL, 37°C, colony counts
# [23] = JZ10, broth microdilution, anaerobic 37°C, 12~18 h
# [24] = CVCC 1137, broth microdilution, anaerobic 37°C, 12~18 h
# [25] = CVCC 51, broth microdilution, anaerobic 37°C, 12~18 h
# [26] = CVCC 46, broth microdilution, 1×10^5 CFU/mL, anaerobic 37°C, 12~18 h, triplicate
# [27] = CVCC 46, broth microdilution, anaerobic 37°C, 12~18 h, triplicate
# [28] = JC2, broth microdilution, anaerobic 37°C, 12~18 h
# [29] = CVCC 46, chequerboard, drug alone, triplicate
# [30] = JT1, broth microdilution, anaerobic 37°C, 12~18 h
compound,measurement,setting,value
CN(C)[C@@H]1C(O)=C(C(N)=O)C(=O)[C@@]2(O)C(O)=C3C(=O)c4c(O)ccc(Cl)c4[C@@](C)(O)[C@H]3C[C@@H]12 [Aureomycin],MIC,[1],16.7 µM
same,Time to 99.9% reduction of bacterial counts,[2]; [22],2~4 h
same,Bacterial regrowth in time-kill curve,"[2]; CVCC 46, 2×MIC, followed for 10 h",regrowth of C. perfringens strain CVCC 46 was observed
same,MIC,[3],1.04 µM
same,MIC,[4],16.7 µM
same,MICC (MIC of drug used in combination),"[5]; combination Aureomycin-MP1102, CVCC 46",2.09 µM
same,FIC,"[5]; combination Aureomycin-MP1102, MIC in combination / MIC alone",0.25
same,MICC (MIC of drug used in combination),"[5]; combination Aureomycin-NZ2114, CVCC 46",4.18 µM
same,FIC,"[5]; combination Aureomycin-NZ2114, MIC in combination / MIC alone",0.5
same,MIC,[6],16.7 µM
same,MIC,[7],8.36 µM
same,MBC,[8],8.36 µM
same,MIC,[8],4.18 µM
same,MIC,[9],0.52 µM
CCC[C@@H]1C[C@@H](C(=O)N[C@@H]([C@H]2O[C@H](SC)[C@H](O)[C@@H](O)[C@H]2O)[C@@H](C)O)N(C)C1 [Lincomycin],MIC,[1],> 278 µM
same,Time to 99.9% reduction of bacterial counts,[2]; [22],2~4 h
same,MIC,[3],4.3 µM
same,MIC,[4],> 278 µM
same,MICC (MIC of drug used in combination),"[5]; combination Lincomycin-MP1102, CVCC 46",4.34 µM
same,FIC,"[5]; combination Lincomycin-MP1102, MIC in combination / MIC alone",0.5
same,MICC (MIC of drug used in combination),"[5]; combination Lincomycin-NZ2114, CVCC 46",4.34 µM
same,FIC,"[5]; combination Lincomycin-NZ2114, MIC in combination / MIC alone",0.5
same,MIC,[6],2.2 µM
same,MIC,[7],8.68 µM
same,MBC,[8],8.68 µM
same,MIC,[8],8.68 µM
same,MIC,[9],2.17 µM
"CC[C@H](C)[C@@H]1NC(=O)[C@H](CO)NC(=O)[C@H](CCCCN)NC(=O)[C@@H]2CSSC[C@@H](C(=O)N[C@@H](Cc3ccc(O)cc3)C(=O)O)NC(=O)[C@H](CCCCN)NC(=O)[C@@H]3CSSC[C@H](NC(=O)[C@H](CCCCN)NC(=O)[C@H](C(C)C)NC(=O)[C@H](CC(=O)O)NC(=O)[C@H](CC(=O)O)NC(=O)[C@H](CCC(=O)O)NC(=O)[C@H](CCC(N)=O)NC(=O)[C@H](Cc4c[nH]c5ccccc45)NC(=O)[C@@H]4CCCN4C(=O)CNC(=O)[C@H](CC(N)=O)NC(=O)[C@@H](NC(=O)CNC(=O)[C@H](Cc4ccccc4)NC(=O)CN)CSSC[C@H](NC(=O)[C@H](Cc4ccc(O)cc4)NC(=O)CNC(=O)CNC(=O)[C@H](CCCCN)NC(=O)[C@H](Cc4ccc(O)cc4)NC(=O)CNC(=O)[C@H](CCCCN)NC1=O)C(=O)N[C@@H](C)C(=O)N[C@@H](CCCCN)C(=O)NCC(=O)NCC(=O)N[C@@H](Cc1ccccc1)C(=O)N[C@@H](C(C)C)C(=O)N3)C(=O)N[C@@H](Cc1c[nH]cn1)C(=O)N[C@@H](CC(N)=O)C(=O)N[C@@H](Cc1c[nH]cn1)C(=O)N2 [MP1102] (H-GFGCNGPWQEDDVKCHNHCKSIKGYKGGYCAKGGFVCKCY-OH; disulfide 4-30, 15-37, 19-39)",MIC,"[10]; JZ10, 18 h",>14.5 µM
same,MIC,"[11]; CVCC 1137, 18 h",1.82 µM
same,Bacterial regrowth in time-kill curve,[2],no bacterial regrowth
same,Time to 99.9% reduction of bacterial counts,[2],≤ 1 h
same,MIC,"[12]; CVCC 51, 18 h",0.91 µM
same,Ratio of cells in phase I,[13],8.14% and 13.65%
same,MBC,"[14]; CVCC 46, 18 h",0.91 µM
same,MIC,"[14]; CVCC 46, 18 h",0.91 µM
same,PI-stained percentages of cells,[15],3.11~5.67%
same,MIC,"[16]; JC2, 18 h",>14.5 µM
same,MICa (MIC of drug used alone),[5],1.82 µM
same,"FICI, range over the tested antibiotics",[5]; CVCC 46,0.375~1.0
same,Change of CD spectrum of genomic DNA,[17],DNA ellipticity intensity decreased
same,"PI-stained percentages of cells, range over time",[18],36.5~96.7%
same,Binding to genomic DNA (gel retardation),[19],interacted with MDR C. perfringens CVCC 46 genomic DNA
same,Peptide/DNA mass ratio for complete retardation of DNA migration,[19],> 10.0
same,MIC,"[20]; JT1, 18 h",0.46 µM
CC[C@H](C)[C@@H]1NC(=O)[C@H](CO)NC(=O)[C@H](CCCCN)NC(=O)[C@@H]2CSSC[C@@H](C(=O)N[C@@H](Cc3ccc(O)cc3)C(=O)O)NC(=O)[C@H](CCCCN)NC(=O)[C@@H]3CSSC[C@H](NC(=O)[C@H](CCC(N)=O)NC(=O)[C@H](CCSC)NC(=O)[C@H](CC(=O)O)NC(=O)[C@H](CC(=O)O)NC(=O)[C@H](CCC(=O)O)NC(=O)[C@H](CC(=O)O)NC(=O)[C@H](Cc4c[nH]c5ccccc45)NC(=O)[C@@H]4CCCN4C(=O)CNC(=O)[C@H](CC(N)=O)NC(=O)[C@@H](NC(=O)CNC(=O)[C@H](Cc4ccccc4)NC(=O)CN)CSSC[C@H](NC(=O)[C@H](Cc4ccc(O)cc4)NC(=O)CNC(=O)CNC(=O)[C@H](CCCCN)NC(=O)[C@H](Cc4ccc(O)cc4)NC(=O)CNC(=O)[C@H](CCCCN)NC1=O)C(=O)N[C@@H](C)C(=O)N[C@@H](CCCCN)C(=O)NCC(=O)NCC(=O)N[C@@H](Cc1ccccc1)C(=O)N[C@@H](C(C)C)C(=O)N3)C(=O)N[C@@H](Cc1c[nH]cn1)C(=O)N[C@@H](CC(N)=O)C(=O)N[C@@H](Cc1c[nH]cn1)C(=O)N2 [Plectasin],MIC,"[10]; JZ10, 18 h",>14.5 µM
same,Hemolysis / cytotoxicity,[21],non-hemolytic or non-cytotoxic
same,MBC,"[14]; CVCC 46, 18 h",1.81 µM
same,MIC,"[14]; CVCC 46, 18 h",1.81 µM
same,MIC,"[16]; JC2, 18 h",>14.5 µM
same,MIC,"[20]; JT1, 18 h",0.23 µM
CN[C@H](CC(C)C)C(=O)N[C@H]1C(=O)N[C@@H](CC(N)=O)C(=O)N[C@H]2C(=O)N[C@H]3C(=O)N[C@H](C(=O)N[C@H](C(=O)O)c4cc(O)cc(O)c4-c4cc3ccc4O)[C@H](O)c3ccc(c(Cl)c3)Oc3cc2cc(c3O[C@@H]2O[C@H](CO)[C@@H](O)[C@H](O)[C@H]2O[C@H]2C[C@](C)(N)[C@H](O)[C@H](C)O2)Oc2ccc(cc2Cl)[C@H]1O [Vancomycin],MIC,[1],22.1 µM
same,Time to 99.9% reduction of bacterial counts,[2],8 h
same,MIC,[3],0.69 µM
same,MIC,[4],22.1 µM
same,FIC,[5],0.5
same,MICC (MIC of drug used in combination),[5],0.345 µM
same,MIC,[6],0.69 µM
same,MIC,[7],0.69 µM
same,MBC,[8],0.69 µM
same,MIC,[8],0.69 µM
same,MIC,[9],0.69 µM
Bacitracin zinc,MIC,[10]; [23],>86.1 µM
same,MIC,[11]; [24],1.35 µM
same,Time to 99.9% reduction of bacterial counts,[2]; [22],8 h
same,MIC,[12]; [25],1.35 µM
same,MIC,[14]; [26],0.67 µM
same,MBC,[14]; [27],1.34 µM
same,MIC,[16]; [28],>86.1 µM
same,MICa (MIC of drug used alone),[5]; [29],0.67 µM
same,FIC,"[5]; combination Bacitracin zinc-MP1102, MIC in combination / MIC alone",0.5
same,FIC,"[5]; combination Bacitracin zinc-NZ2114, MIC in combination / MIC alone",0.25
same,MIC,[20]; [30],0.67 µM
Virginiamycin,MIC,[10]; [23],121.8 µM
same,MIC,[11]; [24],0.48 µM
same,Time to 99.9% reduction of bacterial counts,[2]; [22],2~4 h
same,MIC,[12]; [25],0.24 µM
same,MIC,[14]; [26],0.96 µM
same,MBC,[14]; [27],0.96 µM
same,MIC,[16]; [28],60.9 µM
same,MICa (MIC of drug used alone),[5]; [29],0.96 µM
same,MICC (MIC of drug used in combination),"[5]; combination Virginiamycin-MP1102, CVCC 46",0.12 µM
same,FIC,"[5]; combination Virginiamycin-MP1102, MIC in combination / MIC alone",0.125
same,MICC (MIC of drug used in combination),"[5]; combination Virginiamycin-NZ2114, CVCC 46",0.48 µM
same,FIC,"[5]; combination Virginiamycin-NZ2114, MIC in combination / MIC alone",0.5
same,MIC,[20]; [30],0.46 µM
